# Laboratory results as given in US6846934B2, “Photochromic diarylethene substituted with isoxazole group” (Korea Research Institute of Chemical Technology, priority 2001, dated 2005).
# How the values were obtained:
# [1] = Dispersability of diarylethene compounds in polymer solution (photochromic thin film composition); assay type: physicochemical; set-up: key: ◯ = clear solution at RT; Δ = medium solubility; X = insoluble, phase separation and unclear solution; details: 10 wt. % diarylethene, chloroform + trichloroethylene, room temperature
# Source text: Solubilities of diarylethene compounds of the present invention and known diarylethene compounds were compared by dispersing in polycarbonate (PC) solution or fluorinated polyethylene.
# Compared diarylethene compounds are 1-(6′-(5-phenylisoxazol) 2′-methylbenzo[b]thiophen-3′-yl)-2-(2″-methylbenzo[b]thiophen-3′-yl)hexafluorocyclopentene (PIMBTF6) prepared in Example 4 and 1,2-bis(2-methylbenzo[b]thiophen-3′-yl)hexafluorocyclopentene (BTF6) and 1-(6′-acetyl-2′-methylbenzo[b]thiophen-3′-yl)-2-(2″-methylbenzo[b]thiophen-3′-yl)hexafluorocyclopentene (AMBTF6) which are disclosed. Each thin film composition was prepared by dissolving 0.03 g (10 wt. %) of diarylethene compound and 0.27 g (90 wt. %) of polycarbonate (PC) or fluorinated polyethylene in a mixture of 1.2 g of chloroform and 1.2 g of trichloroethylene and stirring at room temperature for 6 hrs.
# [2] = Dispersability of diarylethene compounds in fluorinated diacrylate monomer (TFBDA) or THF; assay type: physicochemical; set-up: key: ◯ = clear solution at RT; Δ = medium solubility; X = insoluble, phase separation and unclear solution; details: room temperature
# Method: Solubilities of diarylethene compounds of the present invention and known diarylethene compounds were compared by dispersing in fluorinated diacrylate monomer (TFBDA) or THF.
# The same diarylethene compounds used in Examples 6-7 and Comparative Examples 1-4 are used to obtain the desired composition. Each thin film composition was prepared by dissolving 0.01 g (10 wt. %) of diarylethene compound and 0.002 g (2 wt. %) of 1-hydroxycyclohexyl phenyl ketone as photopolymerization initiator in 0.088 g (88 wt. %) of TFBDA and stirring at room temperature for 30 min.
# [3] = 90 wt. % fluorinated polyethylene (Xeonex 480)
Compound,"Dispersability [1, 3]",Dispersability ([1]; 90 wt. % polycarbonate (PC)),Dispersability ([2]; 10 wt. % diarylethene in TFBDA),Dispersability ([2]; solvent THF)
"CC(=O)c1ccc2c(C3=C(c4c(C)sc5ccccc45)C(F)(F)C(F)(F)C3(F)F)c(C)sc2c1 [AMBTF6, 1-(6′-acetyl-2′-methylbenzo[b]thiophen-3′-yl)-2-(2″-methylbenzo[b]thiophen-3′-yl)hexafluorocyclopentene]",X,X,Δ,◯
"Cc1sc2ccccc2c1C1=C(c2c(C)sc3ccccc23)C(F)(F)C(F)(F)C1(F)F [BTF6, 1,2-bis(2-methylbenzo[b]thiophen-3′-yl)hexafluorocyclopentene]",X,◯,X,
"Cc1sc2cc(-c3cc(-c4ccccc4)on3)ccc2c1C1=C(c2c(C)sc3cc(-c4cc(-c5ccccc5)on4)ccc23)C(F)(F)C(F)(F)C1(F)F [DPIMBTF6, di(6′-phenylisoxazol-2′-methylbenzo[b]thiophen-3′-yl)hexafluorocyclopentene]",,,◯,
"Cc1sc2ccccc2c1C1=C(c2c(C)sc3cc(-c4cc(CO)on4)ccc23)C(F)(F)C(F)(F)C1(F)F [IMBTF6, 1-(6′-(5-hydroxymethylisoxazol)-2′-methylbenzo[b]thiophen-3′-yl)-2-(2″-methylbenzo[b]thiophen-3′-yl)hexafluorocyclopentene]",,,X,◯
"Cc1sc2ccccc2c1C1=C(c2c(C)sc3cc(-c4cc(-c5ccccc5)on4)ccc23)C(F)(F)C(F)(F)C1(F)F [PIMBTF6, 1-(6′-(5-phenylisoxazol)-2′-methylbenzo[b]thiophen-3′-yl)-2-(2″-methylbenzo[b]thiophen-3′-yl)hexafluorocyclopentene]",Δ,◯,◯,◯
